Test systems include SK-MEL-2 melanoma; PC-3 prostate; NCI/ADR-RES ovarian; OVCAR-3 ovarian; HCT-116 colon; A498 renal; ACHN renal.
Holding throughout (experiment): DTP human tumour cell line panel, 48 h

The record followed here is PubChem BioAssay (NCI).

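Protocol summary: plate cells (96-well), add compound at 5 concentrations, incubate 48 h, interpolate endpoints linearly. Abbreviation: GI50, concentration required for 50% inhibition of growth. TGI denotes the concentration required for complete inhibition of growth.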

As for `CC(C)(C)C[C@H]1N[C@@H](C(=O)NC2CCC(O)CC2)[C@H](c2cccc(Cl)c2F)[C@@]12C(=O)Nc1cc(Cl)ccc12` (some centres not stated), the GI50 (as a rule, the concentration that inhibits growth by half) was 4.93 µM in the assay with SK-MEL-2 melanoma; 3.65 µM with PC-3 prostate; 14 µM with NCI/ADR-RES ovarian; 8.68 µM in the assay on OVCAR-3 ovarian; 0.41 µM in the assay on HCT-116 colon; 1.11 µM with A498 renal. In the assay on ACHN renal, the GI50 was 0.375 µM. Besides, the TGI (usually the concentration giving total growth inhibition) is 19.7 µM in the assay with SK-MEL-2 melanoma; 13.5 µM in the assay on PC-3 prostate; 33.9 µM in the assay on NCI/ADR-RES ovarian; 21 µM with OVCAR-3 ovarian; 11.9 µM in the assay with HCT-116 colon; 10.3 µM in the assay with A498 renal. In addition, in the assay with ACHN renal, the TGI is 10.1 µM.
Turning to `COc1ccc(-n2cc(-c3ccc(OC)c(OC)c3)[nH]c2=O)cc1`, the GI50 in the assay on SK-MEL-2 melanoma, in the assay on PC-3 prostate, in the assay on NCI/ADR-RES ovarian, with OVCAR-3 ovarian, with HCT-116 colon and in the assay on A498 renal was greater than 100 µM throughout. Moreover, in the assay with ACHN renal, the GI50 is greater than 100 µM. For the same compound, the TGI in the assay on SK-MEL-2 melanoma, in the assay with PC-3 prostate, in the assay with NCI/ADR-RES ovarian, in the assay on OVCAR-3 ovarian, in the assay on HCT-116 colon and in the assay with A498 renal was greater than 100 µM throughout. In the assay on ACHN renal, this compound yielded a concentration for total growth inhibition (TGI) greater than 100 µM.
Take `CCCCCCCC(=O)OCC/C=C/C1OC1C1OC(=O)/C=C\C=C\C(=O)N(C(C)=O)C(=O)/C=C(/C)CCC2OC2C1OC(=O)NC(C)=O` (configuration not stated): the GI50 with SK-MEL-2 melanoma is 6.46 µM; in the assay on PC-3 prostate, 3.15 µM; with NCI/ADR-RES ovarian it was greater than 25 µM; with OVCAR-3 ovarian it was 4.07 µM; in the assay on HCT-116 colon it was 1.8 µM; with A498 renal, 22.6 µM. In addition, the GI50 with ACHN renal was 2.14 µM. Also, the TGI in the assay on SK-MEL-2 melanoma was 20.4 µM; in the assay with PC-3 prostate, 8.04 µM; with NCI/ADR-RES ovarian, greater than 25 µM; in the assay with OVCAR-3 ovarian, 8.4 µM; in the assay on HCT-116 colon, 4.97 µM; in the assay on A498 renal, greater than 25 µM. In the assay on ACHN renal, this compound came in with a TGI of 9.94 µM.
As to `O=c1[nH]c(C2CCCN2)nc2c1oc1ccc(Cl)cc12` (configuration not stated), the GI50 in the assay with SK-MEL-2 melanoma was greater than 100 µM; in the assay on PC-3 prostate, greater than 100 µM; in the assay on NCI/ADR-RES ovarian, greater than 100 µM; in the assay on OVCAR-3 ovarian it was greater than 100 µM; in the assay with HCT-116 colon, greater than 90.7 µM; in the assay with A498 renal, 1.77 µM. In addition, the GI50 in the assay with ACHN renal is greater than 100 µM. The concentration for total growth inhibition (TGI) in the assay with SK-MEL-2 melanoma was greater than 100 µM; with PC-3 prostate, greater than 100 µM; with NCI/ADR-RES ovarian it was greater than 100 µM; with OVCAR-3 ovarian it was greater than 100 µM; in the assay with HCT-116 colon it was greater than 100 µM; with A498 renal it was 25 µM. In addition, the concentration for total growth inhibition (TGI) in the assay with ACHN renal is greater than 100 µM.
Turning to `Cn1c(COC(=O)NCCn2ccnc2)nc2c(N3CCOCC3)nc(-c3ccccc3)nc21`, the GI50 in the assay on SK-MEL-2 melanoma was 1.68 µM; with PC-3 prostate, 0.751 µM; in the assay with NCI/ADR-RES ovarian it was 1.54 µM; in the assay on OVCAR-3 ovarian it was 0.174 µM; with HCT-116 colon it was 0.136 µM; in the assay with A498 renal, 1.25 µM. Also, the GI50 in the assay on ACHN renal was 0.353 µM. Besides, the concentration for total growth inhibition (TGI) was 3.3 µM with SK-MEL-2 melanoma; 2.14 µM in the assay on PC-3 prostate; 5.09 µM with NCI/ADR-RES ovarian; 0.367 µM in the assay on OVCAR-3 ovarian; 0.351 µM in the assay on HCT-116 colon; 2.53 µM in the assay with A498 renal. Also, the concentration for total growth inhibition (TGI) in the assay on ACHN renal stood at 1.31 µM.
`COc1c2ccoc2nc2c(OC)c(OCC(O)C(C)(C)O)ccc12` (configuration not stated): the TGI with SK-MEL-2 melanoma, with PC-3 prostate, in the assay with NCI/ADR-RES ovarian, in the assay with OVCAR-3 ovarian, with HCT-116 colon and with A498 renal was greater than 100 µM throughout. For the same compound, the total growth inhibition concentration (TGI) in the assay on ACHN renal is greater than 100 µM.
Turning to `COC1=CC(c2ccc[nH]2)=N/C1=C\c1[nH]c(C)c(C(=O)CCCCCCCCC(=O)O[C@H]2CC[C@H]3C4CCc5cc(O)ccc5C4CC[C@]23C)c1C` (some centres not stated), the 50% growth inhibitory concentration (GI50) is 0.247 µM in the assay with SK-MEL-2 melanoma; 0.327 µM in the assay on PC-3 prostate; 25.9 µM in the assay with NCI/ADR-RES ovarian; 0.493 µM in the assay on OVCAR-3 ovarian; 0.159 µM with HCT-116 colon; 1.28 µM in the assay on A498 renal. In the assay with ACHN renal, the GI50 was 1.16 µM. Also, the concentration for total growth inhibition (TGI) with SK-MEL-2 melanoma is 1.95 µM; in the assay with PC-3 prostate it was greater than 50 µM; in the assay with NCI/ADR-RES ovarian it was greater than 50 µM; with OVCAR-3 ovarian, 15 µM; with HCT-116 colon, greater than 22.1 µM; with A498 renal, greater than 43.8 µM. In the assay on ACHN renal, this compound had a TGI greater than 50 µM.
`NCCO/C=C/C(N)C(=O)O` (configuration not stated): the concentration for total growth inhibition (TGI) in the assay on SK-MEL-2 melanoma, with PC-3 prostate, with NCI/ADR-RES ovarian, with OVCAR-3 ovarian, in the assay with HCT-116 colon and with ACHN renal was greater than 100 µM throughout.
Take `COc1cc(O)ccc1C(=S)SC`: the TGI with SK-MEL-2 melanoma, with PC-3 prostate, in the assay on NCI/ADR-RES ovarian, in the assay on OVCAR-3 ovarian, in the assay with HCT-116 colon and with ACHN renal was greater than 100 µM each time.
`CCCC(=O)O[C@]1(C)CC[C@@H]2[C@H]3[C@@H]1[C@@H]1C[C@@](C)(O)[C@H](OC)CC[C@](C)(OC(=O)[C@@H]2C)[C@H]3O1`: the GI50 with SK-MEL-2 melanoma was 65.7 µM; in the assay with NCI/ADR-RES ovarian it was 67.1 µM; with OVCAR-3 ovarian, 16.9 µM; with HCT-116 colon it was 36.5 µM; with A498 renal it was 35.4 µM; in the assay with ACHN renal, 35.8 µM. In addition, the TGI with SK-MEL-2 melanoma was greater than 100 µM; in the assay on NCI/ADR-RES ovarian, greater than 100 µM; in the assay on OVCAR-3 ovarian, 40 µM; in the assay on HCT-116 colon, greater than 100 µM; in the assay with A498 renal, greater than 100 µM; with ACHN renal, greater than 100 µM.
For the compound `C/C(=N/NC(=S)Nc1ccccc1)c1nc2ccc(Cl)cc2[nH]1`, the GI50 with SK-MEL-2 melanoma is 0.252 µM; with PC-3 prostate, 0.236 µM; with OVCAR-3 ovarian, 0.0777 µM; in the assay with HCT-116 colon, 0.0811 µM; in the assay with A498 renal, 0.0806 µM. For the same compound, the total growth inhibition concentration (TGI) in the assay on SK-MEL-2 melanoma came out at 0.901 µM; in the assay with PC-3 prostate, 2.23 µM; in the assay on OVCAR-3 ovarian, 1.26 µM; with HCT-116 colon, 0.771 µM; in the assay with A498 renal, 0.708 µM.
As to `COc1ccc(-c2ccc(C3CC(c4ccccc4)=NN3)o2)c([N+](=O)[O-])c1` (configuration not stated), the GI50 with PC-3 prostate is 37.3 µM; with NCI/ADR-RES ovarian it was 33.9 µM; with OVCAR-3 ovarian, 29.8 µM; with HCT-116 colon it was 33.5 µM; with A498 renal it was 68.4 µM; in the assay with ACHN renal, 57.7 µM. Moreover, the TGI with PC-3 prostate, in the assay on NCI/ADR-RES ovarian, in the assay on OVCAR-3 ovarian, in the assay with HCT-116 colon, in the assay with A498 renal and in the assay on ACHN renal was greater than 100 µM throughout.
